Results: patent publication US8575135B2 (Gilead Sciences, Inc., priority 2011, dated 2013)
Read-outs that look alike come from different tables or passages of the source.

Experiments:
[1] = test system: 1a Pi-Rluc replicon with Q30R in genotype 1a NS5A; assay: microbe, parasite or virus in culture; assay type: cell-based, HCV; conditions: Hepatitis C virus
Outline: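 Renilla luciferase replicon assay: 1a Pi-RLuc replicon carrying NS5A Q30R, transfected transiently into cured-51 (Huh-7-derived) cells.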

[2] = test system: stable HCV 1a RLuc replicon cells (genotype 1a H77 replicon); assay: microbe, parasite or virus in culture; assay type: cell-based; conditions: Hepatitis C virus
[3] = test system: stable HCV 1b RLuc replicon cells (genotype 1b Con1 replicon); assay: microbe, parasite or virus in culture; assay type: cell-based; conditions: Hepatitis C virus, read-out: 1b (nM)
[4] = test system: NS5A chimeric genotype 1b Con1 replicon with genotype 3a S52 strain NS5A gene; assay: microbe, parasite or virus in culture; assay type: cell-based, HCV; conditions: Hepatitis C virus
Outline: (§1)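 Genotype 3a (S52) and 4a (ED43) NS5A chimeras use 1b Con1 Pi-RLuc replicons, transfected transiently; 2b MD2b-1 NS5A chimera (M31) uses 2a JFH-1 RLuc-Neo replicon, transient or stable.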

[5] = test system: NS5A chimeric genotype 2a JFH-1 replicon with genotype 2b MD2b-1 strain NS5A gene (M31 present); assay: microbe, parasite or virus in culture; assay type: cell-based, HCV; conditions: Hepatitis C virus
Outline: as §1

[6] = test system: NS5A chimeric genotype 2a JFH-1 replicon with genotype 2a J6 strain NS5A gene (M31 present); assay: microbe, parasite or virus in culture; assay type: cell-based, HCV; conditions: Hepatitis C virus
[7] = IV and PO single dose pharmacokinetic studies in SD rats; assay type: in vivo; conditions: male, Sprague-Dawley, rat, plasma, IV infusion 1 mg/kg vs oral gavage 2 mg/kg, read-out: Rat % F
Procedure: IV and PO Single Dose Pharmacokinetic Studies in SD Rats: The pharmacokinetics of selected compounds was characterized in male Sprague-Dawley (SD) rats (250-300g). […] The intravenous (IV) dosing vehicle was 5% ethanol, 35% polyethylene glycol 400 (PEG 400) and 60% water pH 2.0. […] Serial blood samples (approximately 0.3 mL each) were collected from jugular vein or other suitable vein at specified time points. […] The blood samples were collected into Vacutainer™ tubes containing EDTA-K3 as the anti-coagulant and were centrifuged at approximately 4° C. to obtain plasma. The plasma samples were stored at −20° C. until analysis by LC/MS/MS. A bioanalytical method utilizing high performance liquid chromatography coupled to tandem mass spectrometry (LC/MS/MS) was developed for analysis of the selected compound in rat plasma. Detection was performed using selected reaction monitoring (SRM); […] Standard curve and quality control samples were prepared in male rat plasma and processed in the same way as the test samples to generate quantitative data. Pharmacokinetic parameters were generated using non-compartmental pharmacokinetic analysis (Phoenix WinNonlin, version 6.3). Values below the lower limit of quantification (LLOQ) were assigned a value of zero if predose and treated as missing thereafter. Area under the curve (AUC) was calculated using the linear trapezoidal rule. The oral bioavailability (% F) was determined by comparison of the area under the curve (AUC) of the compound and/or a metabolite generated in plasma following oral administration to that generated following intravenous administration.

[8] = test system: stable HCV 2a JFH-1 Rluc replicon cells (L31 present in NS5A); assay: microbe, parasite or virus in culture; assay type: cell-based; conditions: Hepatitis C virus

COC[C@H]1C[C@@H](c2ncc(-c3ccc4c(c3)COc3cc5c(ccc6nc([C@@H]7CC[C@H](C)N7C(=O)[C@@H](NC(=O)OC)C(C)C)[nH]c65)cc3-4)[nH]2)N(C(=O)[C@@H](NC(=O)OC)[C@H](C)OC)C1 [Example QA, Methyl {(2S)-1-[(2S,5S)-2-(9-{2-[(2S,4S)-1-{(2S,3S)-3-methoxy-2-[(methoxycarbonyl)amino]butanoyl}-4-(methoxymethyl)pyrrolidin-2-yl]-1H-imidazol-5-yl}-1,11-dihydroisochromeno[4′,3′:6,7]naphtho[1,2-d]imidazol-2-yl)-5-methylpyrrolidin-1-yl]-3-methyl-1-oxobutan-2-yl}carbamate]
EC50 ([1]; read-out: 1a Q30R): < 1 nM | EC50 ([1]; read-out: 1a Q30R (nM)): 0.045 nM | EC50 ([2]; read-out: 1a): < 1 nM | EC50 ([2]; read-out: 1a (nM)): 0.012 nM | EC50 [3]: 0.013 nM | EC50 ([4]; read-out: 3a): < 1 nM | EC50 ([4]; read-out: 3a (nM)): 0.038 nM | EC50 ([5]; read-out: 2b): < 1 nM | EC50 ([5]; read-out: 2b (s) (nM)): 0.04 nM | EC50 ([5]; read-out: 2b (t) (nM)): 0.052 nM | EC50 ([6]; read-out: 2a J6): < 1 nM | EC50 ([6]; read-out: 2a Jb (t) (nM)): 0.094 nM | bioavailability [7]: 7.46% | EC50 ([8]; read-out: 2a JFH): < 1 nM | EC50 ([8]; read-out: 2a JFH (nM)): 0.007 nM
